# Measurements published in patent US20050032713A1, “Platelet-activating factor antagonists as analgesic, anti-inflammatory, uterine contraction inhibiting, and anti-tumor agents” (priority 2002, published 2005).
# “Also recorded” adds a separate entry of the source. *1 amine or outer side, *2 acyl side, *3 side chain or, on linkers, in order; H or OH if unused. Where a SMILES comes first, the peptide text is derived from it. Bridges are numbered along the chain shown (N, C = ends). Roman numbers before positions name the chains, in order. [ ]: non-standard residue; d: D form. Actinocin(9to1) = Cc1c2oc3c(C)ccc(C(=O)[*:1])c3nc-2c(C(=O)[*:2])c(N)c1=O; NMeV = CN[C@H](C(=O)O)C(C)C; Sar = CNCC(=O)O
# Tests used:
# Type in all cases: cell-based, rat
# [1] = test system: astrocyte-enriched cortical cell cultures; assay: PGE2 release (ELISA) from astrocyte-enriched cortical cell cultures exposed to PAF analogs, related lipids or AA; conditions: for PGE2 release into the conditioned media: various concentrations; for concentration giving peak PGE2 release: higher and lower concentrations elicited less release
# Experimental: (§1) All experimental protocols were approved by the Massachusetts Institute of Technology institutional review committee and meet the guidelines of the National Institutes of Health. Dissociated astrocytes were cultured from cortices of postnatal day 1-2 rat pups (as described by K. D. McCarthy, et al., Preparation of separate astroglial and oligodendroglial cell cultures from rat cerebral tissue, J. Cell Biol. 85 (1980) 890-902, with minor modifications R. K. K. Lee, et al., Metabolic glutamate receptors increase amyloid precursor protein processing in astrocytes: inhibition by cyclic AMP, J. Neurochem. 68 (1997) 1830-1835.) In brief, cells from dissociated cortices were plated onto poly-L-lysine coated 35- or 100 mm culture dishes. The initial culture media, minimal essential medium (MEM, Gibco-Life Technologies; Rockville, Md.) containing 15% horse serum (BioWhittaker; Walkersville, Md.), were aspirated 2-5 h after plating to remove unattached cells and debris, and replaced with MEM containing 5% fetal bovine serum (FBS, BioWhittaker; Walkersville, Md.). Half the medium was replaced with MEM/5% FBS twice weekly. Astrocytes were kept at 37° C. in a humidified 5% CO2/95% air incubator for 9-15 days, by which time the cultures were confluent and could be used for experiments.
# (§2) Mc-PAF (Biomol; Plymouth Meeting, PA) was dissolved in methanol at a stock concentration of 10 mM. PAF-16, PAF-18, lyso-PAF, AA (Cayman Chemicals), lyso-PC and PC (Sigma) were dissolved in ethanol at stock concentrations of 10 mM. All stock solutions of lipids were stored at −80° C. and were used within 6 weeks of reconstitution. BN 52021 and CV 6209 (Biomol) were dissolved in ethanol. These PAF antagonists were stored at −20° C. in stock concentrations of 100 mM. BN 50730 (Biomeasure; Milford, Mass.) was dissolved in 45% hydroxy-B-cyclodextrin (HBC). All agents were diluted in warned serum-free medium prior to cell stimulation. Equal amounts of vehicle was added to control cells.
# (§3) Cells used for all experiments were established in vitro 9-15 days prior to use in experiments and were over 95% confluent. Serum-containing media were changed every 3-4 days. Cells were serum-deprived 24 hours prior to experimental treatments. Where treatment with PAF antagonists is indicated, these compounds were added 30 minutes prior to the addition of other agents.
# (§4) PGE2 levels were measured by ELISA according to manufacturer's instructions (Cayman Chemicals, Ann Arbor, Mich.). Since the amount of PGE2 in fresh medium was negligible, (J. Luo, et al., Transforming growth factor B1 regulates the expression of cyclooxygenase in cultured cortical astrocytes and neurons, J. Neurochem. 71 (1998) 526-534), direct assays of the PGE2 concentration in cell-conditioned medium was used as a measurement of PGE2 secretion by cultured cells. Results were derived from at least 3 separate experiments, assayed in duplicate or triplicate (n=6-8). The reliable detection limit of this assay (i.e. sensitivity) averaged 14+/−6 pg of PGE2.
# [2] = test system: astrocyte-enriched cortical cell cultures; assay: Effect of PAF antagonists on mc-PAF-, lyso-PAF- and AA-induced PGE2 release from astrocytes; conditions: for mc-PAF-induced PGE2 release: antagonist added 30 min before mc-PAF (1 μM), 30 min, BN 50730 0.1-100 μM, BN 52021 and CV 6209 1-50 μM; for PGE2 release, antagonist administered alone: no mc-PAF
# Experimental: as §1, §2, §3, §4
# [3] = test system: primary cortical astrocytes; assay: Effect of COX inhibitors on mc-PAF-induced PGE2 release from primary astrocytes (Example 3)
# Experimental: Mc-PAF (Cayman Chemical, Ann Arbor, Mich.) was dissolved in ethanol at a stock concentration of 10 mM. Indomethacin, piroxicam, NS-398 (Biomol; Plymouth Meeting, Mass.), and SC-560 (Cayman Chemical) were dissolved in 45% hydroxy-β-cyclodextrin (HBC; Sigma, St. Louis, Mo.). Cells were serum-deprived for 24 hrs prior to experimental treatments to induce quiescence. Where treatment with inhibitors is indicated, these compounds were added 30 min prior to the addition of mc-PAF.
# Direct assay of the PGE2 concentration in cell-conditioned medium was used as an index of PGE2 secretion by primary astrocytes. PGE2 levels were measured by ELISA according to manufacturer's instructions (Cayman Chemicals, Ann Arbor, Mich.), as described.
# Results were derived from at least 3 separate experiments, assayed in duplicate or triplicate (n=6−8). Data were expressed as means+/−SEMs. Statistical analyses were performed using ANOVAs for comparisons between groups, followed by Fischer's PLSD post hoc comparisons by means contrast. p values <0.05 were considered statistically significant.
# [4] = various inhibitor concentrations (indomethacin 1, 10, and 50 μM), 30 min prior to mc-PAF (0.1 uM) for 30 min
# [5] = pre-treatment, actinomycin D 5 μg/ml, cyclohexamide 10 μg/ml, data not shown
# [6] = 10, 1, 0.1, and 0.01 μM, 30 min
compound,measurement,setting,value
"CCCCC/C=C\C/C=C\C/C=C\C/C=C\CCCC(=O)O [AA, arachidonic acid]",PGE2 release,"[1]; AA 0.01-10 μM, 30 minutes",increased PGE2 release
same,PGE2 release on co-administration with mc-PAF,"[1]; high AA concentration 10 μM with mc-PAF, 30 min",no synergism
same,PGE2 release on co-administration with mc-PAF,"[1]; low AA concentration 0.01 μM with mc-PAF (0.1, 1 or 10 μM), 30 min",additive increase
CCCCCCCCCCCCCCCCCCNC(=O)OCC(COC(=O)N(Cc1cccc[n+]1CC)C(C)=O)OC (stereo not drawn) [CV 6209],mc-PAF-induced PGE2 release,[2],no significant effect; also recorded: do not attenuate
same,mc-PAF-induced PGE2 release,[2]; listed as CV-6209,did not significantly influence
same,AA-induced PGE2 release,[2]; antagonist added 30 min prior,had no effect
same,lyso-PAF-induced PGE2 release,[2]; antagonist added 30 min prior,had no effect
same,"PGE2 release, antagonist administered alone",[2],PGE2 release was increased
same,"PGE2 release, antagonist administered alone",[2]; listed as CV-6209,increased PGE2 release
CS(=O)(=O)Nc1ccc([N+](=O)[O-])cc1OC1CCCCC1 [NS-398],basal PGE2 release,"[3]; NS-398 highest concentrations, 10 and 50 μM",prevented basal PGE2 release
same,mc-PAF-induced PGE2 release,[3]; [4],completely abolished; also recorded: completely blocked
CCCCCCCCCCCCCCCCOC[C@H](COP(=O)([O-])OCC[N+](C)(C)C)OC(C)=O [PAF-16],PGE2 release into the conditioned media,"[1]; 30 min, 37° C.",concentration-dependent increases
same,concentration giving peak PGE2 release,[1]; 30 min,0.1 µM
CCCCCCCCCCCCCCCCCCOC[C@H](COP(=O)([O-])OCC[N+](C)(C)C)OC(C)=O [PAF-18],PGE2 release into the conditioned media,"[1]; 30 min, 37° C.",concentration-dependent increases
same,concentration giving peak PGE2 release,[1]; 30 min,0.1 µM
COc1ccc(-n2nc(C(F)(F)F)cc2-c2ccc(Cl)cc2)cc1 [SC-560],mc-PAF-induced PGE2 release,[3]; [4],did not significantly influence; also recorded: did not significantly do so; also recorded: minimal influence
"Cc1c2oc3c(C)ccc(C(=O)N[C@@H]4C(=O)N[C@H](C(C)C)C(=O)N5CCC[C@H]5C(=O)N(C)CC(=O)N(C)[C@@H](C(C)C)C(=O)O[C@@H]4C)c3nc-2c(C(=O)N[C@@H]2C(=O)N[C@H](C(C)C)C(=O)N3CCC[C@H]3C(=O)N(C)CC(=O)N(C)[C@@H](C(C)C)C(=O)O[C@@H]2C)c(N)c1=O [actinomycin D] (I: T[dV]P[Sar][NMeV] / II: T[dV]P[Sar][NMeV]; ester I:1-I:C, II:1-II:C; linker I:N-II:N via Actinocin(9to1))",mc-PAF-induced PGE2 release,[3]; [5],had no effect
C[C@@H]1C[C@@H]([C@H](O)CC2CC(=O)NC(=O)C2)C(=O)[C@@H](C)C1 [cyclohexamide],mc-PAF-induced PGE2 release,[3]; [5],had no effect
COc1ccc2c(c1)c(CC(=O)O)c(C)n2C(=O)c1ccc(Cl)cc1 [indomethacin],basal PGE2 release,"[3]; indomethacin 1, 10, and 50 μM",without affecting basal PGE2 release
same,mc-PAF-induced PGE2 release,[3]; [4],attenuated; also recorded: completely blocked
CCCCCCCCCCCCCCCCOC[C@@H](O)COP(=O)([O-])OCC[N+](C)(C)C [lyso-PAF],concentration at which PGE2 release was significantly increased,"[1]; 30 min, 37° C.",10 µM
same,PGE2 release into the conditioned media,"[1]; 30 min, 37° C.",concentration-dependent increases
CN1C(C(=O)Nc2ccccn2)=C(O)c2ccccc2S1(=O)=O [piroxicam],mc-PAF-induced PGE2 release,"[3]; piroxicam 50 μM, effect not statistically significant",attenuated some of this PGE2 release
same,mc-PAF-induced PGE2 release,"[3]; piroxicam 1 or 10 μM, 30 min prior to mc-PAF (0.1 uM)",had no effect
same,mc-PAF-induced PGE2 release,[3]; [4],did not significantly do so; also recorded: minimal influence
lyso-phosphatidylcholine [lyso-PC],PGE2 release,[1]; [6],had no effect
phosphatidylcholine [PC],PGE2 release,[1]; [6],had no effect
